These results are taken from PMC7139822, “Flumazenil-Insensitive Benzodiazepine Effects in Recombinant αβ and Neuronal GABAA Receptors” (Brain Sciences, 2020).

The target in this assay is T1, α1β2 receptor (Rattus norvegicus, UniProt P62813+P63138).
T1 construct: gene Gabra1; full-length rat subunit cDNAs by RT-PCR from brain mRNA; α in pcDNA3.1(+), β in pIRES2-EGFP (EGFP separate via IRES); HEK293; α:β cDNA 1:1, said to favor 2α:3β pentamer
In words: whole-cell patch clamp, HEK293. It is filed as cell-based. The following applies: 200 µM; positive allosteric modulator, non-classical site; co-applied with 0.1 μmol/L GABA; −60 mV; pH 7.4. The text has this:
whole-cell patch clamp, HEK293 on α1β2 receptor

T1 sequence (P62813 28-455): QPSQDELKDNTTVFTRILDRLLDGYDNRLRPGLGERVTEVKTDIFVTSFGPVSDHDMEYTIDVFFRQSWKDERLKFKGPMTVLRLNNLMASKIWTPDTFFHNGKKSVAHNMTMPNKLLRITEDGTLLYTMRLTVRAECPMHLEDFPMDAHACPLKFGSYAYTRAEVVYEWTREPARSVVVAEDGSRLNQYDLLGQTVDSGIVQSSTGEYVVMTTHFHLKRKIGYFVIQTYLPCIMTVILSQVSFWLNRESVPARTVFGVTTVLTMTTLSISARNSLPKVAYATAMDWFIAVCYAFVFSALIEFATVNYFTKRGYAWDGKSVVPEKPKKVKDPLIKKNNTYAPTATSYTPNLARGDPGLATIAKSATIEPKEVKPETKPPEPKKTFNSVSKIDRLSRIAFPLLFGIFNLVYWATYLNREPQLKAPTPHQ
T1 sequence (P63138 26-474): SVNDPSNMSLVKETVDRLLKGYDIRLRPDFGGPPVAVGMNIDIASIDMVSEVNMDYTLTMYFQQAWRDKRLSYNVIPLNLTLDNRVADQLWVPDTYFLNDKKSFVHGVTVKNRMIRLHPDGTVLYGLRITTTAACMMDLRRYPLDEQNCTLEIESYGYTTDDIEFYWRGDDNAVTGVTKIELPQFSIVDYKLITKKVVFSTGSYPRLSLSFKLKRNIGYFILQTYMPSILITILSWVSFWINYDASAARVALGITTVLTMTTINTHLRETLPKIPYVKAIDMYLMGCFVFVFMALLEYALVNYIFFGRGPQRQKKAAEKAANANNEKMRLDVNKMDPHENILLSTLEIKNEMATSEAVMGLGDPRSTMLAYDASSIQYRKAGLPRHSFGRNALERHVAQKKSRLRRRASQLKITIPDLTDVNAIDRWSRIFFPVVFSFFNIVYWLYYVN

For the compound `Cc1ncc2n1-c1ccc(Cl)cc1C(c1ccccc1F)=NC2` [Midazolam], the “Potentiation of GABA Currents (%) / (Midazolam)” value is given as 171.8 ± 13.8%.
